Each block holds one compound with its values, some of them ahead of it.
Tested on: 782815-120-R-J1-PDC complex spheroid viability
Test: Anticancer human tumor 782815-120-R-J1-PDC patient-derived colon adenocarcinoma cell line growth inhibition [RAS]
Conditions: for viability, T/C: stronger effect = lower value
From the text: RAS pathway inhibitors in Combinations in Complex Spheroids
A high-throughput screen of multi-cell type tumor spheroids was designed to identify active combinations of RAS pathway inhibitors and targeted small molecules. Complex spheroids include a stromal component modeled by human endothelial cells (HUVEC) and fibroblasts modeled by human mesenchymal stem cells (MSCs). The concentration ranges selected for each drug and investigational agent were based upon clinically achievable concentrations if the clinical Cmax of the agent was known.
Compounds. The drugs and investigational agents: abemaciclib (NSC768073), cobimetinib (NSC768068), divarasib (GDC6063, NSC841802), docetaxel (NSC628503), GDC-1971 (RLY-1971, NSC841576), gemcitabine (NSC613327), inavolisib (NSC800729), ipatasertib (NSC767898), KB-0742 (NSC834161), MRTX-1133 (NSC836407), osimertinib (NSC779217), RMC-4630 (NSC839698), RMC-6236 (NSC851965), RMC-6291 (NSC852671), Ro-3306 (NSC812927), sapanisertib (NSC764658), SN-38 (NSC673596), staurosporine (NSC755774), SY5609 (NSC837396), and tovorafenib (DAY101, NSC766906), were obtained from the National Cancer Institute (NCI) Developmental Therapeutics Program Chemical Repository. The FDA-approved anticancer drug set is available from the NCI Developmental Therapeutics Program. […] The stock solutions were prepared in dimethyl sulfoxide (DMSO, Sigma-Aldrich, St. Louis, MO, cat. D2650) at 800-fold the tested concentration and stored at -70 degrees C prior to their use. All drugs and investigational agents were tested over a range starting from a high concentration at or near the clinical Cmax and decreasing in half-log increments. If the clinical Cmax for an agent had not been determined, the highest concentration tested was 10 microM.
Cell Culture. All cells were maintained in an incubator at 37 degrees C and 5% CO2 with 95% humidity. The PDC lines were cultured according to standard operating procedures established by the NCI PDMR. All PDCs were thawed and cultured in Matrigel-coated flasks prepared with a working solution of 1X Ham's F-12 nutrient mix, without supplementation (Invitrogen, Waltham, MA, cat. 11765054), 100 U/mL penicillin-streptomycin (Invitrogen, cat. 15140122), and 2.5% Matrigel (Corning Inc., Corning, NY, cat. 354248) for the first three passages. The 362531-283-R-J2-PDC and 782815-120-R-J1-PDC lines were cultured in 6C/Colon 1B media, which includes advanced DMEM/F-12 (Thermo Fisher Scientific, cat. 12634028), 10 mM HEPES (Thermo Fisher Scientific, cat. 15630080), 1X GlutaMAX supplement (Thermo Fisher Scientific, cat. 35050061), 0.1 mg/mL primocin (InvivoGen, San Diego, CA, cat. ant-pm-2), 10% defined fetal bovine serum, heat inactivated (HyClone Laboratories Inc., Logan, UT, cat. SH30070.03HI), 50% L-WRN conditioned media (ATCC, cat. CRL-3276), 1.25 mM N-Acetyl-L-cysteine (Sigma-Aldrich, cat. A9165), 10 mM nicotinamide (Sigma-Aldrich, cat. N0636), 1X B-27 supplement (Thermo Fisher Scientific, cat. 17504044), 1X N-2 supplement (Thermo Fisher Scientific, cat. 17502048), 50 ng/mL human EGF (Thermo Fisher Scientific, cat. PHG0311), and 10 microM Y-27632 dihydrochloride (Tocris Bioscience, cat. 1254). The K12877-001-R-J1-PDC line was cultured in 6I media, which includes all 6C/Colon 1B media plus 10 ng/mL human FGF-10 (PeproTech, cat. 100-26), 1 ng/mL human FGF-2 (PeproTech, cat. 100-18B), 1 µM prostaglandin E2 (Tocris Bioscience, cat. 2296), […] hydrocortisone (Sigma-Aldrich, cat. H4001), and […] bovine insulin (Sigma-Aldrich, cat. I6634). The K86415-001-R-J1-PDC line was cultured in 6D media, which includes all 6C/Colon 1B media components minus the L-WRN conditioned media. The 485176-168-R4-J1-PDC was cultured in PANC media, which includes all 6C/Colon 1B media plus 100 ng/mL human FGF-10 (PeproTech, cat. 100-26), 500 nM SB-431542 (Selleckchem, cat. S1067), and 10 nM gastrin (Tocris Bioscience, cat. 3006). […]
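Also: spheroids exposed to compounds for 7 days before reading.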
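For viability, T/C in this document: 100% = DMSO vehicle control viability.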

- IC50 (curve of first compound, second compound 0.0316 µM): > 10 µM
- IC50 (curve of first compound, second compound 0.1 µM): > 10 µM
- IC50 (curve of first compound, second compound 0.316 µM): > 10 µM
- IC50 (curve of first compound, second compound 1 µM): > 10 µM
- IC50 (curve of first compound, second compound 3.16 µM): > 10 µM
- IC50 (curve of first compound, second compound 10 µM): > 10 µM
SMILES: C[C@@H](NC(=O)c1ncnc(N)c1Cl)c1ncc(C(=O)Nc2cc(C(F)(F)F)c(Cl)cn2)s1 + C#Cc1c(F)ccc2cc(O)cc(-c3ncc4c(N5CC6CCC(C5)N6)nc(OCC56CCCN5CC(F)C6)nc4c3F)c12
- viability, T/C (second compound 0.0316 µM, first compound 0.0316 µM): 105%
- viability, T/C (second compound 0.0316 µM, first compound 0.1 µM): 101%
- viability, T/C (second compound 0.0316 µM, first compound 0.316 µM): 108%
- viability, T/C (second compound 0.0316 µM, first compound 1 µM): 90.7%
- viability, T/C (second compound 0.0316 µM, first compound 3.16 µM): 85.2%
- viability, T/C (second compound 0.0316 µM, first compound 10 µM): 72.3%
- viability, T/C (second compound 0.1 µM, first compound 0.0316 µM): 98.5%
- viability, T/C (second compound 0.1 µM, first compound 0.1 µM): 111%
- viability, T/C (second compound 0.1 µM, first compound 0.316 µM): 96.4%
- viability, T/C (second compound 0.1 µM, first compound 1 µM): 99.1%
- viability, T/C (second compound 0.1 µM, first compound 3.16 µM): 81.4%
- viability, T/C (second compound 0.1 µM, first compound 10 µM): 71.4%
- viability, T/C (second compound 0.316 µM, first compound 0.0316 µM): 104%
- viability, T/C (second compound 0.316 µM, first compound 0.1 µM): 108%
- viability, T/C (second compound 0.316 µM, first compound 0.316 µM): 96.7%
- viability, T/C (second compound 0.316 µM, first compound 1 µM): 95.9%
- viability, T/C (second compound 0.316 µM, first compound 3.16 µM): 80.4%
- viability, T/C (second compound 0.316 µM, first compound 10 µM): 70.5%
- viability, T/C (second compound 1 µM, first compound 0.0316 µM): 105%
- viability, T/C (second compound 1 µM, first compound 0.1 µM): 114%
- viability, T/C (second compound 1 µM, first compound 0.316 µM): 111%
- viability, T/C (second compound 1 µM, first compound 1 µM): 82.5%
- viability, T/C (second compound 1 µM, first compound 3.16 µM): 71.1%
- viability, T/C (second compound 1 µM, first compound 10 µM): 61.5%
- viability, T/C (second compound 3.16 µM, first compound 0.0316 µM): 99.3%
- viability, T/C (second compound 3.16 µM, first compound 0.1 µM): 101%
- viability, T/C (second compound 3.16 µM, first compound 0.316 µM): 91.6%
- viability, T/C (second compound 3.16 µM, first compound 1 µM): 87.3%
- viability, T/C (second compound 3.16 µM, first compound 3.16 µM): 76.4%
- viability, T/C (second compound 3.16 µM, first compound 10 µM): 65.7%
- viability, T/C (second compound 10 µM, first compound 0.0316 µM): 105%
- viability, T/C (second compound 10 µM, first compound 0.1 µM): 100%
- viability, T/C (second compound 10 µM, first compound 0.316 µM): 92.8%
- viability, T/C (second compound 10 µM, first compound 1 µM): 86.2%
- viability, T/C (second compound 10 µM, first compound 3.16 µM): 71.6%
- viability, T/C (second compound 10 µM, first compound 10 µM): 57.2%

- IC50 (compound alone, run of 07/15/2024): > 10 µM
SMILES: C#Cc1c(F)ccc2cc(O)cc(-c3ncc4c(N5CC6CCC(C5)N6)nc(OCC56CCCN5CC(F)C6)nc4c3F)c12 (centres undefined)
- viability, T/C (compound 0.0316 µM): 104% [middle of 8 runs]
- viability, T/C (compound 0.1 µM): 103% [middle of 8 runs]
- viability, T/C (compound 0.316 µM): 103% [middle of 8 runs]
- viability, T/C (compound 1 µM): 97.9% [middle of 8 runs]
- viability, T/C (compound 3.16 µM): 101% [middle of 8 runs]
- viability, T/C (compound 10 µM): 95% [middle of 8 runs]
